Laboratory results published in PMC5530453, “Anti-Parkinson Drug Biperiden Inhibits Enzyme Acetylcholinesterase” (BioMed Research International, 2017).

Target: Acetylcholinesterase (AChE) (Electrophorus electricus, UniProt O42275)
Test: Ellman's assay with purchased electric eel AChE, Dixon plot
Format: biochemical

Acetylcholinesterase (AChE), sequence (O42275 24-633): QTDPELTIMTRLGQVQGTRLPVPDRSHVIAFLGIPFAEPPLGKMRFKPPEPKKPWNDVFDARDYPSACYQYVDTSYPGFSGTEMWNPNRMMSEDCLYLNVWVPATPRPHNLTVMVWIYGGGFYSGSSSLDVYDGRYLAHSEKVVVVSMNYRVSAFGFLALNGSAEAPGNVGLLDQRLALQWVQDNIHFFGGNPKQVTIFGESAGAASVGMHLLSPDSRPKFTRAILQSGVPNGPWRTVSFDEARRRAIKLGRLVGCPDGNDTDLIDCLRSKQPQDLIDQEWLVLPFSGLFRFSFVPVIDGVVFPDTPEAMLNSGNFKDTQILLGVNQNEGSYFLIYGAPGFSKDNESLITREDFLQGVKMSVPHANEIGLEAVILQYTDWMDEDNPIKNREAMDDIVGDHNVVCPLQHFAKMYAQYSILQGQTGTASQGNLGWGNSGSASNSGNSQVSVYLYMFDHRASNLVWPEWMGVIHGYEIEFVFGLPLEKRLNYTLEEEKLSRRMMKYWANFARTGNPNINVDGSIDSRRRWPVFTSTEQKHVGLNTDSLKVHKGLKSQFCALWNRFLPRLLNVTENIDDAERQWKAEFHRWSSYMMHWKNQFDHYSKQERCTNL

`OC(CCN1CCCCC1)(c1ccccc1)C1CC2C=CC1C2` (stereo not drawn) [Biperiden, alpha-bicyclo[2.2.1]hept-5-en-2-yl-alpha-phenyl-1-piperidinepropanol] showed a Ki of 1110 ± 200 µM.
